Experiments:
Assay type in all cases: in vivo
[1] = tested on: yellow nutsedge (Cyperus esculentus); experiment: Test C postemergence; details: Cyperus, post-emergence, 336 h, Postemergence, scale 0 to 100, read-out: Plant response rating, Nutsedge, Yellow
Method in brief: (§1)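 Greenhouse test, preemergence on seeded soil or postemergence on 1- to 4-leaf plants. Response is a visual 0-100 rating versus controls, taken 13-15 days after treatment.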

[2] = tested on: giant foxtail (Setaria faberii); experiment: Test C postemergence; details: Setaria faberi, post-emergence, 336 h, Postemergence, scale 0 to 100, read-out: Plant response rating, Foxtail, Giant
Method in brief: as §1

[3] = tested on: lambsquarters (Chenopodium album); experiment: Test C postemergence; details: Chenopodium album, post-emergence, 336 h, Postemergence, scale 0 to 100, read-out: Plant response rating, Lambsquarters
Method in brief: as §1

[4] = tested on: chickweed (common chickweed, Stellaria media); experiment: Test C postemergence; details: Stellaria media, post-emergence, Postemergence, scale 0 to 100, read-out: Plant response rating, Chickweed
Method in brief: as §1

[5] = tested on: blackgrass (Alopecurus myosuroides); experiment: Test C postemergence; details: Alopecurus myosuroides, post-emergence, 336 h, Postemergence, scale 0 to 100, read-out: Plant response rating, Blackgrass
Method in brief: as §1

[6] = tested on: velvetleaf (Abutilon theophrasti); experiment: Test C postemergence; details: Abutilon theophrasti, post-emergence, Postemergence, scale 0 to 100, read-out: Plant response rating, Velvetleaf
Method in brief: as §1

[7] = tested on: oilseed rape (Brassica napus); experiment: Test C preemergence; details: Brassica napus, pre-emergence, preemergence, scale 0 to 100, read-out: Plant response rating, Oilseed Rape
Method in brief: as §1

[8] = tested on: johnsongrass (Sorghum halepense); experiment: Test C preemergence; details: Sorghum halepense, pre-emergence, 336 h, preemergence, scale 0 to 100, read-out: Plant response rating, Johnsongrass
Method in brief: as §1

[9] = tested on: yellow nutsedge (Cyperus esculentus); experiment: Test C preemergence; details: Cyperus, pre-emergence, 336 h, preemergence, scale 0 to 100, read-out: Plant response rating, Nutsedge, Yellow
Method in brief: as §1

[10] = tested on: giant foxtail (Setaria faberii); experiment: Test C preemergence; details: Setaria faberi, pre-emergence, 336 h, preemergence, scale 0 to 100, read-out: Plant response rating, Foxtail, Giant
Method in brief: as §1

[11] = tested on: Italian ryegrass (Lolium multiflorum); experiment: Test C preemergence; details: Lolium multiflorum, pre-emergence, 336 h, preemergence, scale 0 to 100, read-out: Plant response rating, Ryegrass, Italian
Method in brief: as §1

[12] = tested on: large (Lg) crabgrass (Digitaria sanguinalis); experiment: Test C preemergence; details: Digitaria sanguinalis, pre-emergence, 336 h, preemergence, scale 0 to 100, read-out: Plant response rating, Crabgrass, Large
Method in brief: as §1

[13] = tested on: waterhemp (common waterhemp, Amaranthus rudis); experiment: Test C preemergence; details: Amaranthus tuberculatus, pre-emergence, preemergence, scale 0 to 100, read-out: Plant response rating, Waterhemp
Method in brief: as §1

[14] = tested on: soybean (Glycine max); experiment: Test C preemergence; details: Glycine max, pre-emergence, preemergence, scale 0 to 100, read-out: Plant response rating, Soybean
Method in brief: as §1

[15] = tested on: galium (catchweed bedstraw, Galium aparine); experiment: Test C preemergence; details: Galium, pre-emergence, 336 h, preemergence, scale 0 to 100, read-out: Plant response rating, Galium
Method in brief: as §1

[16] = tested on: blackgrass (Alopecurus myosuroides); experiment: Test C preemergence; details: Alopecurus myosuroides, pre-emergence, 336 h, preemergence, scale 0 to 100, read-out: Plant response rating, Blackgrass
Method in brief: as §1

[17] = tested on: morningglory (Ipomoea coccinea); experiment: Test C preemergence; details: Ipomoea, pre-emergence, 336 h, preemergence, scale 0 to 100, read-out: Plant response rating, Morningglory
Method in brief: as §1

[18] = tested on: winter wheat (Triticum aestivum); experiment: Test C preemergence; details: Triticum aestivum, pre-emergence, 336 h, preemergence, scale 0 to 100, read-out: Plant response rating, Wheat
Method in brief: as §1

[19] = tested on: ragweed (common ragweed, Ambrosia elatior); experiment: Test C preemergence; details: Ambrosia artemisiifolia, pre-emergence, 336 h, preemergence, scale 0 to 100, read-out: Plant response rating, Ragweed
Method in brief: as §1

[20] = tested on: pigweed (Amaranthus retroflexus); experiment: Test C preemergence; details: Amaranthus retroflexus, pre-emergence, 336 h, preemergence, scale 0 to 100, read-out: Plant response rating, Pigweed
Method in brief: as §1

[21] = tested on: corn (Zea mays); experiment: Test C preemergence; details: Zea mays, pre-emergence, 336 h, preemergence, scale 0 to 100
Method in brief: as §1

[22] = tested on: velvetleaf (Abutilon theophrasti); experiment: Test C preemergence; details: Abutilon theophrasti, pre-emergence, preemergence, scale 0 to 100, read-out: Plant response rating, Velvetleaf
Method in brief: as §1

Fc1cnc(Oc2c(F)cccc2Oc2ncc(Cl)cn2)nc1 [Compound 23]
pest or weed control at 31 g/ha ([1]; 31 g ai/ha): 0% | pest or weed control at 62 g/ha ([1]; 62 g ai/ha): 0% | pest or weed control at 125 g/ha ([1]; 125 g ai/ha): 5% | pest or weed control at 250 g/ha ([1]; 250 g ai/ha): 5% | pest or weed control at 31 g/ha ([2]; 31 g ai/ha): 0% | pest or weed control at 62 g/ha ([2]; 62 g ai/ha): 5% | pest or weed control at 125 g/ha ([2]; 125 g ai/ha): 10% | pest or weed control at 250 g/ha ([2]; 250 g ai/ha): 35% | pest or weed control at 31 g/ha ([3]; 31 g ai/ha): 70% | pest or weed control at 62 g/ha ([3]; 62 g ai/ha): 80% | pest or weed control at 125 g/ha ([3]; 125 g ai/ha): 90% | pest or weed control at 250 g/ha ([3]; 250 g ai/ha): 95% | pest or weed control at 31 g/ha ([4]; 31 g ai/ha): 50% | pest or weed control at 62 g/ha ([4]; 62 g ai/ha): 50% | pest or weed control at 125 g/ha ([4]; 125 g ai/ha): 60% | pest or weed control at 250 g/ha ([4]; 250 g ai/ha): 60% | pest or weed control at 31 g/ha ([5]; 31 g ai/ha): 0% | pest or weed control at 62 g/ha ([5]; 62 g ai/ha): 5% | pest or weed control at 125 g/ha ([5]; 125 g ai/ha): 5% | pest or weed control at 250 g/ha ([5]; 250 g ai/ha): 30% | pest or weed control at 31 g/ha ([6]; 31 g ai/ha): 70% | pest or weed control at 62 g/ha ([6]; 62 g ai/ha): 70% | pest or weed control at 125 g/ha ([6]; 125 g ai/ha): 75% | pest or weed control at 250 g/ha ([6]; 250 g ai/ha): 90% | plant injury at 31 g/ha ([7]; 31 g ai/ha): 100% | plant injury at 62 g/ha ([7]; 62 g ai/ha): 100% | plant injury at 125 g/ha ([7]; 125 g ai/ha): 100% | plant injury at 250 g/ha ([7]; 250 g ai/ha): 100% | pest or weed control at 31 g/ha ([8]; 31 g ai/ha): 40% | pest or weed control at 62 g/ha ([8]; 62 g ai/ha): 50% | pest or weed control at 125 g/ha ([8]; 125 g ai/ha): 90% | pest or weed control at 31 g/ha ([9]; 31 g ai/ha): 0% | pest or weed control at 62 g/ha ([9]; 62 g ai/ha): 10% | pest or weed control at 125 g/ha ([9]; 125 g ai/ha): 60% | pest or weed control at 31 g/ha ([10]; 31 g ai/ha): 95% | pest or weed control at 62 g/ha ([10]; 62 g ai/ha): 98% | pest or weed control at 125 g/ha ([10]; 125 g ai/ha): 100% | pest or weed control at 31 g/ha ([11]; 31 g ai/ha): 5% | pest or weed control at 62 g/ha ([11]; 62 g ai/ha): 75% | pest or weed control at 125 g/ha ([11]; 125 g ai/ha): 85% | pest or weed control at 250 g/ha ([11]; 250 g ai/ha): 90% | pest or weed control at 31 g/ha ([12]; 31 g ai/ha): 100% | pest or weed control at 62 g/ha ([12]; 62 g ai/ha): 100% | pest or weed control at 125 g/ha ([12]; 125 g ai/ha): 100% | pest or weed control at 31 g/ha ([13]; 31 g ai/ha): 100% | pest or weed control at 62 g/ha ([13]; 62 g ai/ha): 100% | pest or weed control at 125 g/ha ([13]; 125 g ai/ha): 100% | pest or weed control at 250 g/ha ([13]; 250 g ai/ha): 100% | plant injury at 31 g/ha ([14]; 31 g ai/ha): 60% | plant injury at 62 g/ha ([14]; 62 g ai/ha): 80% | plant injury at 125 g/ha ([14]; 125 g ai/ha): 90% | plant injury at 250 g/ha ([14]; 250 g ai/ha): 95% | pest or weed control at 31 g/ha ([15]; 31 g ai/ha): 100% | pest or weed control at 62 g/ha ([15]; 62 g ai/ha): 100% | pest or weed control at 125 g/ha ([15]; 125 g ai/ha): 100% | pest or weed control at 31 g/ha ([16]; 31 g ai/ha): 65% | pest or weed control at 62 g/ha ([16]; 62 g ai/ha): 85% | pest or weed control at 125 g/ha ([16]; 125 g ai/ha): 95% | pest or weed control at 31 g/ha ([17]; 31 g ai/ha): 45% | pest or weed control at 62 g/ha ([17]; 62 g ai/ha): 85% | pest or weed control at 125 g/ha ([17]; 125 g ai/ha): 98% | plant injury at 31 g/ha ([18]; 31 g ai/ha): 5% | plant injury at 62 g/ha ([18]; 62 g ai/ha): 40% | plant injury at 125 g/ha ([18]; 125 g ai/ha): 50% | plant injury at 250 g/ha ([18]; 250 g ai/ha): 90% | pest or weed control at 31 g/ha ([19]; 31 g ai/ha): 85% | pest or weed control at 62 g/ha ([19]; 62 g ai/ha): 100% | pest or weed control at 125 g/ha ([19]; 125 g ai/ha): 100% | pest or weed control at 250 g/ha ([19]; 250 g ai/ha): 100% | pest or weed control at 31 g/ha ([20]; 31 g ai/ha): 100% | pest or weed control at 62 g/ha ([20]; 62 g ai/ha): 100% | pest or weed control at 125 g/ha ([20]; 125 g ai/ha): 100% | Corn plant response rating (crop injury, 0 = no effect, 100 = complete kill) at 31 g/ha ([21]; 31 g ai/ha): 5% | Corn plant response rating (crop injury, 0 = no effect, 100 = complete kill) at 62 g/ha ([21]; 62 g ai/ha): 35% | Corn plant response rating (crop injury, 0 = no effect, 100 = complete kill) at 125 g/ha ([21]; 125 g ai/ha): 70% | pest or weed control at 31 g/ha ([22]; 31 g ai/ha): 100% | pest or weed control at 62 g/ha ([22]; 62 g ai/ha): 100% | pest or weed control at 125 g/ha ([22]; 125 g ai/ha): 100% | pest or weed control at 250 g/ha ([22]; 250 g ai/ha): 100%

Reference: patent US20170190671A1, “BIS(ARYL)CATECHOL DERIVATIVES AS HERBICIDES” (E I DU PONT DE NEMOURS AND COMPANY, priority 2014, published 2017)
